Results from patent US20160355465A1, “NOVEL MODIFIED CURCUMINS AND THEIR USES” (THE RESEARCH FOUNDATION OF STATE UNIVERSITY OF NEW YORK, priority 2011, published 2016).

Tests used:
contact dermatitis = experiment: poison ivy contact dermatitis on the arms of a human subject, topical; assay type: in vivo; settings: Example 9
Text: The leaves of a poison ivy plant are applied to equally sized areas of the left and right arms of a human subject.

[1] = severity of hyperglycemia (blood glucose, HbA1c) in diabetic rats; assay type: in vivo, rat
Procedure: (§1) The following five experimental groups (n=3 rats per group) were established: Non-diabetic control rats (NDC) treated by daily application of white petrolatum jelly (“vehicle”) for 7 days, diabetic rats (D group) treated daily with vehicle alone; diabetics treated by daily topical application of either a 1% (D+1%) or a 3% (D+3%) suspension of Compound 4 in the vehicle; and diabetics treated systemically by daily oral intubation of a 1 ml suspension of Compound 4 (in carboxymethylcellulose) at a dose of 30 mg/kg over the 7-day treatment protocol (D+30 mg/kg). At the end of this time period, the circular wounds were clinically assessed by measuring diameter of the wound in millimeters, blood samples were collected, the rats were sacrificed, and skin samples collected for histological/histochemical, and biochemical assessment as described below. • 1) On day 7 after inducing wound healing, the animals were anesthetized and blood samples collected for blood glucose (one Touch Ultra Glucometer; Johnson & Johnson, New Brunswick, N.J.) and Hemoglobin A1c (A1c Now+; Bayer Health Care, Sunnyvale, Calif.) measurements. • 2) Photographs were taken for clinical observations to assess wound closure. […]

MMP-2 = target: T1, MMP-2 (Homo sapiens, UniProt P08253); experiment: fluorimetric assay of MMP activity; assay type: biochemical; settings: synthetic fluorescent peptide substrate Mca-Lys-Pro-Leu-Gly-Leu-Dpa-Ala-Arg-NH2; read-out: IC50 MMP-2
T1 sequence (P08253 110-660): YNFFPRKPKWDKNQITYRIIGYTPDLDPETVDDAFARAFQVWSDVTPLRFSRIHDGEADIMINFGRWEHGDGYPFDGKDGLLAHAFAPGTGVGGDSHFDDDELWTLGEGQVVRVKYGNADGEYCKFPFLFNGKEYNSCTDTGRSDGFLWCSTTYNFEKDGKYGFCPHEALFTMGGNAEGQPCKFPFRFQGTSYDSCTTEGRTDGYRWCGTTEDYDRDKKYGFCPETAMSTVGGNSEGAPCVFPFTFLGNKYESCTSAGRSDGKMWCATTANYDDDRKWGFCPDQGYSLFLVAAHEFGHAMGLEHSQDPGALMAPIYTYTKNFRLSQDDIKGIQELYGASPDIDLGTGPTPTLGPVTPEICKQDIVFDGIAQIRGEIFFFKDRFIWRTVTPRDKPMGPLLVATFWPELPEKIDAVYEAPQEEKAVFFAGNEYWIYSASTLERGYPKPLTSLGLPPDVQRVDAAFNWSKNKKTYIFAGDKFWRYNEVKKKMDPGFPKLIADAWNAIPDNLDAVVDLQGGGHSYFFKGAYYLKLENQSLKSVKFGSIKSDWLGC

[2] = tested on: MMP-2 (72 kDa gelatinase); experiment: gelatin zymography of skin wound extracts; assay type: in vivo, rat; settings: diabetic rats, 1% topical, day 7
Procedure: as §1

[3] = tested on: MMP-9 (92 kDa gelatinase); experiment: gelatin zymography of skin wound extracts; assay type: in vivo, rat; settings: diabetic rats, all three treatments (1%, 3% topical, oral 30 mg/kg), day 7
Procedure: as §1

O=C(/C=C/c1ccc(O)cc1)C(C(=O)/C=C/c1ccc(O)cc1)C(=O)Nc1ccccc1 [Compound 4, 1,7-Bis(4-hydroxyphenyl)-4-N-phenylaminocarbonylhepta-1E, 6E-dien-3,5-dione]
itching and healing of contact dermatitis compared with Compound 2 (contact dermatitis): stops itching sooner and heals quicker | effect on severity of hyperglycemia ([1]; oral 30 mg/kg daily, 21 days): did not affect the severity of hyperglycemia | effect on severity of hyperglycemia (blood glucose, HbA1c) ([1]; topical 1% or 3% or oral 30 mg/kg, 7 days): none of the topical or systemic treatments with Compound 4 demonstrated any effect | IC50 (MMP-2): 4.8 ± 0.5 µM | MMP-2 in skin wounds [2]: does not suppress, and perhaps even enhances | level of pro-MMP-9 and activated MMP-9 in skin wounds [3]: attenuated this diabetic effect
